What was measured:
HBV = assay: Cell culture experiments with N-nonyl-DNJ: total HBV DNA and immune precipitated DNA; format: cell-based, hepatitis B virus
From the text: (§1) There are two measures of drug efficacy: reduction in total HBV DNA (measured by quantitative PCR), and reduction in HBV DNA from capsids with intact surface glycoproteins, which is the active form of the virus (measured by an ELISA-like immune precipitation assay followed by quantitative PCR).

[1] = system: woodchuck hepatitis virus (WHV); assay: Woodchuck model, N-nonyl-DNJ monotherapy, BID oral dosing; format: in vivo
Description: Therefore, five groups of four animals each (all groups had both sexes, all but the control had two of each sex) were assigned to 0, 12.5, 25, 50, and 100 mg/kg/day with BID oral dosing. These were lab-reared wild animals. All animals were infected with woodchuck hepatitis virus (WHV) as neonates, and had been tested positive on serological tests for WHV surface antigen. Blood samples were drawn one week prior to dosing (−1 week), immediately before dosing (0 weeks), weekly during dosing (1, 2, 3, and 4 weeks), and after the end of dosing (5, 6, 8, and 10 weeks).
as §1
Before models are fitted to the data, a log transform was applied because: 1) the variation in IPDNA increases with increasing IPDNA values; the log transformation gives values with a nearly constant variation, and 2) it is expected that drug effects will appear as a constant multiplier of the IPDNA level. Because there are zero values of IPDNA, a small value (about ½ of the smallest non-zero value) was added to all values before the log transform.
Two approaches were used to model the changes in slope to week with dose of N-nonyl-DNJ: a linear modeling approach and a nonlinear model. Both approaches assume that the (linear) rate of change of the Log(IPDNA) measure over the dosing period is the “right” measure to reflect the effect of the drug on the virus. Both approaches are fit in stages, and the first stage is common to both approaches. First, a simple straight line regression model is fit using weeks 0-4 to predict log(IPDNA_+—10) separately for each animal by run combination. In the second stage, the response variable is the slope fitted in the first stage.
For the linear approach, a model is fit with slope to week as the response where run is considered a block, dose has a significant effect (almost all of this effect is due to a slope to dose), and the relevant error for testing the effect of dose is the variation among animals treated alike (after the adjustment for the runs as blocks). This is similar to using the calibration data within each run to first adjust each run's data to a common virus DNA concentration; the difference is that here the data from the woodchucks are used for the run adjustment rather than only the calibration data.
For the nonlinear approach, a four parameter logistic model is fit with the slope to week as the response and the dose as the predictor. Again, run is considered a block, but because no run has all weeks, it is not possible to fully reflect the blocking in the nonlinear approach. […] The average maximum slope observed was 2.71 additional Log(IPDNA g/mL)/week, or an increase of about 150%/week, the average minimum slope observed with N-nonyl-DNJ is 0.31 fewer Log(IPDNA g/mL)/week), or about a decrease of about 25%/week. The slopes, the fitted model, the parameter estimates from the model, and the approximate standard errors for these parameters are all shown in FIG. 3. […] Whether in woodchucks or humans, the effective dose of both the N-alkyl-DNJ and nucleoside or nucleotide antiviral agent administerd in combination therewith can be administerd in two equal daily subdoses (i.e., B.I.D.).

CCCCCCCCCN1C[C@H](O)[C@@H](O)[C@H](O)[C@H]1CO [N-nonyl-DNJ, N-(n-nonyl)-1,5-dideoxy-1,5-imino-D-glucitol]
effect on the immune precipitated DNA (IPDNA) (HBV): marked effect
effect on total HBV DNA (HBV): little or no effect
effect on total HBV DNA measurements ([1]; all dose levels, quantitative PCR): no effect
levels of IPDNA over the dosing period ([1]; high dose animals, weeks 0-4): decreasing levels of IPDNA
levels of IPDNA over the dosing period ([1]; low dose animals, weeks 0-4): increasing levels of IPDNA
average minimum slope observed ([1]; weeks 0-4): 0.31 fewer Log(IPDNA g/mL)/week
decrease of IPDNA per week at average minimum slope ([1]; weeks 0-4): about 25 %/week
approximate effective monotherapy dose ([1]; woodchucks): about 16 mg/kg/day
